Values joined by “and” are separate entries in the source; they are usually repeats but may differ in a detail not shown here. Identical values can stand only once. Like-named read-outs stand apart in the source and are kept apart here.
Assays:
MCF-7 = test: MTT cytotoxicity assay against breast cancer cell line MCF-7; conditions: for Cytotoxic activity class against MCF-7: class by IC50
Procedure: All our newly synthesized hybrids were evaluated for their in vitro anticancer activity by the standard MTT assay against a breast cancer cell line (MCF-7). MTT is a calorimetric assay which relies on the ability of live tumor cells to reduce yellow MTT (3-(4,5-dimethylthiazol-2-yl)-2,5-diphenyltetrazolium bromide) to purple formazan by mitochondrial dehydrogenases, then added DMSO to dissolve the purple formazan and quantified by measuring absorbance at a certain wavelength. The dose response curve for compounds-treated vs. untreated cells is used to quantify the amount of formazan produced to report on the effectiveness of the compounds. […] Cell line: Mammary gland breast cancer (MCF-7). The cell line was obtained from ATCC via Holding company for biological products and vaccines (VACSERA), Cairo, Egypt. […] The cell line elucidated above were used to determine the inhibitory effects of compounds on cell growth using the MTT assay. […] After incubation, the cells were treated with different concentrations of compounds and incubated for an additional 24 h. After 24 h of drug treatment, 20 µL of MTT solution at 5 mg/mL was added and incubated for 4 h. […] The relative cell viability in percentage was calculated as (A570 of treated samples/A570 of the untreated sample) × 100 [48].

[1] = In vitro cytotoxicity against normal Human lung fibroblast (WI38) cell line; type: cell-based; conditions: human, WI38 normal lung fibroblast cells
Pin1 [2] = biological target: T1, Pin1 (Homo sapiens, UniProt Q13526); test: 2D 15N-1H HSQC NMR binding to 15N-labeled Pin1; set-up: Backbone and side-chain chemical shift assignments of full-length, apo, human Pin1; made in house; conditions: Pin1 200 µM, compound 1 mM, 5% DMSO
T1 sequence (Q13526 whole entry): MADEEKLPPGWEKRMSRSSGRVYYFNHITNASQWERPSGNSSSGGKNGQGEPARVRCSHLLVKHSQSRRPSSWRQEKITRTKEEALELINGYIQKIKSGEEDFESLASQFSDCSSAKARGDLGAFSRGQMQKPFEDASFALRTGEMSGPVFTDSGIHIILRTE
Excerpt: Herein, ^15N-labeled Pin1 enzyme is used where we recorded HSQC spectra of the protein alone and in the presence of an excess amount of one of the newly synthesized compounds. The main challenge we faced in our research was the compound solubility in a balanced mixture of the protein aqueous buffer. Although our compound was freely soluble in DMSO, it is inapplicable to use pure DMSO to dissolve the protein because this will result in protein denaturation and probably aggregation. Therefore, only one compound was tested where we were able to dissolve it partially in a mixture of 95% buffer and 5% DMSO. In addition, as a control, the spectrum was recorded only in presence of DMSO and compared to the ones with the ligand. The proportion of Pin1 to the compounds was adjusted to be […]. […] Chemical shift perturbation and peak shifting are indicative of fast exchange between free and bound states which results in peak positions averaging. […] This peak disappearing indicated exchange on the μs–ms time scale (Figure 1). Furthermore, our NMR results have been verified using cell lines.
The expression and purification of ^15N-labeled Pin1 was performed according to the known protocol. The enzyme sample reached a final concentration of 200 µM in PBS buffer at pH = 6.5. Compound number 12 was dissolved in DMSO and added to the protein to achieve a final concentration of 1 mM in the NMR tube. […]

Pin1 [3] = biological target: T1, Pin1; test: Pin1 inhibition assay (SensoLyte Green Pin1 Assay Kit); type: biochemical; set-up: purchased; conditions: for IC50: means ± SD of three experiments; for inhibition at 0.0001 µg/mL: conc 0.1 ng/ml; for inhibition at 0.0001 µg/mL / inhibition at 0.001 µg/mL / inhibition at 0.01 µg/mL / inhibition at 0.1 µg/mL: read-out: Pin1 %inh; for inhibition at 0.001 µg/mL: conc 1 ng/ml; for inhibition at 0.01 µg/mL: conc 10 ng/ml; for inhibition at 0.1 µg/mL: conc 100 ng/ml
Procedure: The ability of the synthesized compounds to inhibit the Pin1 activity was evaluated using the SensoLyte® Green Pin1 Assay Kit. This assay is based on using a fluorogenic substrate which was pretreated to convert it into the cis isomer. Pin1 can change this substrate into the trans isomer that is easily cleaved to generate a fluorescent signal.

Pin1's PPIase activity = biological target: Pin1's PPIase activity; set-up: method as in PMID 19969456; conditions: read-out: IC50 of Pin1's PPIase activity inhibition; cited from earlier work
[4] = Homo sapiens, MCF7, 24 h, read-out: In Vitro Cytotoxicity IC50 MCF-7, MTT assay, 24 h treatment
[5] = Homo sapiens, MCF7, read-out: IC50 against breast cancer cell line (MCF-7), MTT assay, section 2.2

| Compound | IC50 (MCF-7; [4]) [µM] | Cytotoxic activity class against MCF-7 (MCF-7) | melting point [°C] | also measured |
| --- | --- | --- | --- | --- |
| CN(C)c1ccc(/C=C/C(=O)c2nc3cc(Cl)c(Cl)cc3[nH]2)cc1 [Compound 4, (E)-1-(5,6-Dichloro-1H-benzo[d]imidazol-2-yl)-3-(4-(dimethylamino)phenyl)prop-2-en-1-one] | 26.9 | moderate (21–50 (moderate)) | 258 to 260 | IC50 (MCF-7; read-out: In Vitro Cytotoxicity IC50 MCF-7, MTT assay, 24 h treatment): 26.8 ± 2.1 µM |
| C=C1c2nc3cc(Cl)c(Cl)cc3n2C=C(c2ccc(Br)cc2)N1c1ccccc1C [Compound 11, 3-(4-Bromophenyl)-7,8-dichloro-1-methylene-2-(o-tolyl)-1,2-dihydrobenzo[4,5]imidazo[1,2-a]pyrazine] | 38 ± 2.7 | moderate (21–50 (moderate)) | 106 | – |
| C=C1c2nc3cc(Cl)c(Cl)cc3n2C=C(c2ccc(Br)cc2)N1Cc1ccccc1 [Compound 12, 2-Benzyl-3-(4-bromophenyl)-7,8-dichloro-1-methylene-1,2-dihydrobenzo[4,5]imidazo[1,2-a]pyrazine] | 31.3 ± 2.5 | moderate (21–50 (moderate)) | 85 | IC50 at 24 h [1]: 45.7 ± 2.8 µM; Binding to Pin1 by HSQC spectra overlay (Pin1 [2]): chemical shift perturbation and peak disappearance; IC50 (Pin1 [3]): 0.00111 µM and 0.0011 µM |
| CC(O)c1nc2cc(Cl)c(Cl)cc2[nH]1 (stereo not shown) [Compound 2] | – | – | – | inhibition at 0.0001 µg/mL (Pin1 [3]): 39.2%; inhibition at 0.001 µg/mL (Pin1 [3]): 51.1%; inhibition at 0.01 µg/mL (Pin1 [3]): 67%; inhibition at 0.1 µg/mL (Pin1 [3]): 85.2% |
| Cc1nc(-c2ccc(Br)cc2)cn2c1nc1cc(Cl)c(Cl)cc12 [Compound 13, 3-(4-Bromophenyl)-7,8-dichloro-1-methylbenzo[4,5]imidazo[1,2-a]pyrazine] | 71.8 ± 3.8 | weak (51–100 (weak)) | 290 | IC50 (MCF-7; [5]): 71.9 µM |
| 2-(4-Bromophenyl)-7,8-dichlorobenzo[4,5]imidazo[1,2-a]pyridin-4-ol [Compound 14] | – | – | – | IC50 (MCF-7): 46 ± 2.9 µM |
| O=C(O)c1cc2ccccc2[nH]1 [Indole-2-carboxylic acid (I), Indole-2-carboxylic acid] | – | – | – | IC50 (Pin1's PPIase activity): 16 µM |
| C=C1c2nc3cc(Cl)c(Cl)cc3n2C=C(c2ccc(Br)cc2)N1c1ccc(C)cc1 [Compound 10, 3-(4-Bromophenyl)-7,8-dichloro-1-methylene-2-(p-tolyl)-1,2-dihydrobenzo[4,5]imidazo[1,2-a]pyrazine] | 53 ± 3.1 | weak (51–100 (weak)) | 211 | – |
| CN(C)c1ccc(-c2cc(-c3nc4cc(Cl)c(Cl)cc4[nH]3)nc(N)c2C#N)cc1 [Compound 6, 2-Amino-6-(5,6-dichloro-1H-benzo[d]imidazol-2-yl)-4-(4-(dimethylamino)phenyl)nicotinonitrile] | 15.4 ± 1.3 | strong (11–20 (strong)) | 168 to 170 | IC50 (MCF-7; [5]): 15.5 µM |
| CN(C)c1ccc(C2C=C(c3nc4cc(Cl)c(Cl)cc4[nH]3)OC(N)=C2C#N)cc1 (stereo not shown) [Compound 7, 2-Amino-6-(5,6-dichloro-1H-benzo[d]imidazol-2-yl)-4-(4-(dimethylamino)phenyl)-4H-pyran-3-carbonitrile] | 21 ± 1.8 | moderate (21–50 (moderate)) | 150 | – |
| CN(C)c1ccc(C2=NN=C(c3nc4cc(Cl)c(Cl)cc4[nH]3)C2)cc1 [Compound 5, 4-(5-(5,6-Dichloro-1H-benzo[d]imidazol-2-yl)-4H-pyrazol-3-yl)-N,N-dimethylaniline] | 11.7 ± 0.9 | strong (11–20 (strong)) | 216 | IC50 at 24 h [1]: 67.9 ± 3.6 µM; IC50 (MCF-7; [5]): 11.8 µM; IC50 (Pin1 [3]): 0.00064 ± 3e-05 µM |
| Tannic acid [reference compound] | – | – | – | IC50 (Pin1 [3]): 0.000535 µM and 0.00053 µM |
| CC(=O)c1nc2cc(Cl)c(Cl)cc2n1CC(=O)c1ccc(Br)cc1 [Compound 9, 2-(2-Acetyl-5,6-dichloro-1H-benzo[d]imidazol-1-yl)-1-(4-bromophenyl)ethan-1-one] | 63.9 ± 3.4 | – | 322 | inhibition at 0.0001 µg/mL (Pin1 [3]): 34.7%; inhibition at 0.001 µg/mL (Pin1 [3]): 42.2%; inhibition at 0.01 µg/mL (Pin1 [3]): 69.5%; inhibition at 0.1 µg/mL (Pin1 [3]): 87.5% |
